Data on four molecules can be found in article PMC10609904 (Pharmaceuticals, 2023).

Test [1] can be described thus: DPPH radical scavenging assay. On the procedure:
(§1) The DPPH radical scavenging assay and the ABTS assay were used to assess anti-oxidant activity, as previously described in detail by Nguyen et al.. In a 96-well plate, 100 μL of samples (at various concentrations) or distilled water (blank sample) were combined with 25 μL of 0.75 mM DPPH solution (dissolved in methanol). After that, the plates were kept in complete darkness for 30 min. Subsequently, the absorbance was determined at a wavelength of 517 nm. For the ABTS radical-scavenging activity assay, test samples (at various concentrations) were mixed with pre-diluted ABTS solution (reaching an optical density of 0.7). The reaction was allowed to occur for 10 min at room temperature. The absorbance was measured at 734 nm. Ascorbic acid was used as positive control.
(§2) All chemical assays were conducted in triplicate. […] The IC50 value (half-maximal inhibitory concentration of samples) was determined via a standard equation constructed by the inhibitory activity (%) and the respective concentration of the tested sample.
A general note: Loss of DPPH colour is used to gauge radical scavenging.

Test [2] is described as follows: ABTS radical-scavenging activity assay. On the procedure: as §1, §2
The target in test [3] is T1, acetylcholinesterase (AChE) (Electrophorus electricus, UniProt O42275).
T1 construct: purchased Sigma Aldrich
T1 sequence (O42275 24-633): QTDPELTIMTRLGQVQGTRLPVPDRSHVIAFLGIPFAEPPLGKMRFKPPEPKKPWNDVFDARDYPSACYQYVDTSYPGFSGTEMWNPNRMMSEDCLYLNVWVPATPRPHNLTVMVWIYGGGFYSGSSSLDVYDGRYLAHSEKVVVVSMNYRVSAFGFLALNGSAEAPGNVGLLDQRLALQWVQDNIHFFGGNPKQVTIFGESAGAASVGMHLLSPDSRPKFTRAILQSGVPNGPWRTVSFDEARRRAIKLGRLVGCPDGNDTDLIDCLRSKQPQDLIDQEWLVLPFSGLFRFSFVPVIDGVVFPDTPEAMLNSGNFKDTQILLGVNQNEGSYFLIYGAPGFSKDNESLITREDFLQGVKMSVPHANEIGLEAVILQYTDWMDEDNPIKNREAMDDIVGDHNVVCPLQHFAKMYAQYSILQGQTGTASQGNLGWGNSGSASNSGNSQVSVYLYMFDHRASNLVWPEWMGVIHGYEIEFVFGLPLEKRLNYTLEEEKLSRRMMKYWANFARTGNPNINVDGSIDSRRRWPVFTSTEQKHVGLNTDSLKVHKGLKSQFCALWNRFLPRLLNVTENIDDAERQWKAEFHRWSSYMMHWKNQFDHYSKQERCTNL
Put plainly: biochemical. On the procedure:
The anti-Alzheimer impact was assessed in vitro utilizing the key enzyme acetylcholinesterase inhibition assay, as described in an earlier study. In detail, 120 μL of phosphate buffer, 60 μL of tested sample, and 60 μL of enzymatic solution (0.5 mM) were mixed and incubated for fifteen minutes at 25 °C in a 96-well plate. This was followed by the addition of 30 μL of 5,5′-dithiobis-2-nitrobenzoic acid (0.003 M) and 40 μL of acetylthiocholine iodide (0.002 M). The reaction mixture was kept in an incubator at 25 °C for ten minutes. The absorbance of the solution was measured at 415 nm. Berberine chloride was used as a standard inhibitor of the enzyme.
as §2

As a reminder, the IC50 is the concentration needed to halve the response being measured.

Where two headings read alike, the source gives them in different places.

Regarding `O=C1O[C@H]([C@@H](O)CO)C(O)=C1O` [Vitamin C, Ascorbic acid], the “DPPH IC50” value in test [1] was 38.4 ± 0.5 µg/mL. Besides, in test [2], the “ABTS IC50” value came out at 23.0 ± 0.4 µg/mL.
`COc1cc(O)c2c(c1)oc(=O)c1c3cc(O)c(O)cc3oc21` [compound 1, Wedelolactone]: the IC50 in test [3] (read-out: AChE IC50 (converted)) was 195 µM.
As to `O=C(O)c1ccccc1O` [compound 8, Salicylic acid], 405 µM corresponded to half-maximal inhibition in test [3] (IC50).
Still for that read-out and setting: with `COc1ccc2cc3[n+](cc2c1OC)CCc1cc2c(cc1-3)OCO2` [compound 37, Berberine chloride] the figure was 895 µM.
